Experimental data from US10017459B2, “β-substituted β-amino acids and analogs as chemotherapeutic agents and uses thereof” (Quadriga Biosciences, Inc., priority 2015, dated 2018).
Where two headings read alike, the source gives them in different places.

Tests used:
[1] = tested on: LLCPK cells conditionally expressing hLAT1; test: cells; conditions: 0.5 h, read-out: LC50, concentration of test compound at which the percent surviving cells was 50%
[2] = biological target: T1, hLAT1 (Homo sapiens, UniProt Q01650); test: LAT1 uptake inhibition assay, radiolabeled competition uptake with [3H]-Gabapentin; assay type: cell-based
T1 construct: expressed in transfected cells; host or cells: LLCPK cells, tetracycline/doxycycline-inducible, boosted with sodium butyrate

[3] = biological target: T2, hLAT2 (Homo sapiens, UniProt Q9UHI5); test: LAT2 uptake inhibition assay, radiolabeled competition uptake with [3H]-leucine; assay type: cell-based
T2 construct: expressed in transfected cells; host or cells: KB or LLCPK cells, tetracycline/doxycycline-inducible
T2 sequence (Q9UHI5 1-535): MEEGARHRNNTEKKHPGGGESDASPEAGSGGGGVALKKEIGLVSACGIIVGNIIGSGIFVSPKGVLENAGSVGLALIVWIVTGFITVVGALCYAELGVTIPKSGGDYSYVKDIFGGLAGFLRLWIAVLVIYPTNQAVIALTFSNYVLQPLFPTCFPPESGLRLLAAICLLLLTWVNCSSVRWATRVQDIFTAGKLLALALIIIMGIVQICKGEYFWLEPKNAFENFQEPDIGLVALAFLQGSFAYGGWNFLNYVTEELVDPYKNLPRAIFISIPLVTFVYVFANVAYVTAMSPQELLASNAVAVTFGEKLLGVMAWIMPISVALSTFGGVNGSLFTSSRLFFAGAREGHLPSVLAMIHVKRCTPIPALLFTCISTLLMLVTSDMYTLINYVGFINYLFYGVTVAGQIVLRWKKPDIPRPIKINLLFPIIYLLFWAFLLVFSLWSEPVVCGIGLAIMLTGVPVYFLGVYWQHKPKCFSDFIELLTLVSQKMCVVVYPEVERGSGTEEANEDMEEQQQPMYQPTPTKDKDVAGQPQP
T2 sequence (P08195 1-630 isoform P08195-1 partner): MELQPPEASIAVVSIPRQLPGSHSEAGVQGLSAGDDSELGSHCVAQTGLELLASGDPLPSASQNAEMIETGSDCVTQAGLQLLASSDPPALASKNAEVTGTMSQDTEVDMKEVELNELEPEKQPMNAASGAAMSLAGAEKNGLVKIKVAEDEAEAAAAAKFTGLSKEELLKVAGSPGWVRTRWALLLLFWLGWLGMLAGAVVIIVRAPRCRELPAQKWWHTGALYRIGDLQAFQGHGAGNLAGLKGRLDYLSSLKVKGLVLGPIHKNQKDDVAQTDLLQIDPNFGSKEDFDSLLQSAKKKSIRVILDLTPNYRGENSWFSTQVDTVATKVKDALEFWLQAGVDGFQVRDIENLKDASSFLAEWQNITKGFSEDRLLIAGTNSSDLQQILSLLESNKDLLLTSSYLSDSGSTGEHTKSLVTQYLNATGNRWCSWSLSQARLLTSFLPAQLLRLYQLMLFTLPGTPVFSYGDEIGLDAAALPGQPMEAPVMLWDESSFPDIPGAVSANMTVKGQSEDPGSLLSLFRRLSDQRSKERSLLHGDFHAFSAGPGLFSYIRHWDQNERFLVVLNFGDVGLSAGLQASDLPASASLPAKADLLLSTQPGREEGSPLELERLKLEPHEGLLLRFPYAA

[4] = tested on: U251; test: cells; assay type: cell-based; conditions: Homo sapiens, U-251, read-out: IC50 (in vitro toxicity)
[5] = tested on: LN229; test: cells; assay type: cell-based; conditions: Homo sapiens, LN-229, read-out: IC50 (in vitro toxicity)
[6] = tested on: 42MGBA; test: cells; assay type: cell-based; conditions: read-out: IC50 (in vitro toxicity)
[7] = tested on: DBRTG; test: cells; assay type: cell-based; conditions: read-out: IC50 (in vitro toxicity)
[8] = tested on: G55; test: cells; assay type: cell-based; conditions: read-out: IC50 (in vitro toxicity)
[9] = tested on: D283; test: cells; assay type: cell-based; conditions: D283, read-out: IC50 (in vitro toxicity)
[10] = tested on: HCT116; test: In vitro cytotoxicity, HCT116; assay type: cell-based; conditions: Homo sapiens, HCT-116, read-out: IC50 (in vitro toxicity)
[11] = tested on: MCF7; test: In vitro cytotoxicity, MCF7; assay type: cell-based; conditions: Homo sapiens, MCF7, read-out: IC50 (in vitro toxicity)
[12] = tested on: MDA-MB-231; test: cells; assay type: cell-based; conditions: Homo sapiens, MDA-MB-231, read-out: IC50 (in vitro toxicity)
[13] = tested on: MV411; test: cells; assay type: cell-based; conditions: Homo sapiens, MV4-11, read-out: IC50 (in vitro toxicity)
[14] = tested on: Raji; test: cells; assay type: cell-based; conditions: Homo sapiens, read-out: IC50 (in vitro toxicity)
[15] = tested on: PC3; test: cells; assay type: cell-based; conditions: Homo sapiens, PC-3, read-out: IC50 (in vitro toxicity)
[16] = tested on: U251 MG; test: Orthotopic glioblastoma study (Example 84); assay type: in vivo, mouse; conditions: at a dose of 10 mg/kg, IV
Description: The efficacy of compounds provided by the present disclosure was evaluated using an orthotopic luciferase human glioblastoma model—U251 MG. Human glioblastoma cells were intracolonically injected (3×10^5 cells/3 μL) into athymic mice (female, 4-5 weeks-old, nu/un homozygous). Treatment began when the BLI reached a log-phase growth, at about 14 days after injection. Ten mice were assigned to each arm of the study. The mice were dosed with vehicle (IP, once weekly for 4 weeks), compound (5) (5 mg/kg, IV once weekly for 4 weeks), compound (5) (10 mg/kg, IV once weekly for 4 weeks), compound (40) (10 mg/kg, IV once weekly for 4 weeks), or compound (50) (20 mg/kg, IV single dose). The tumor volume was measured using bioluminescence imaging.

[17] = tested on: Human prostate cancer PC3 cells; conditions: mouse, in vivo
[18] = tested on: 794; test: cells; assay type: cell-based; conditions: read-out: IC50 (in vitro toxicity)
[19] = LAT1-expressing cells, increasing concentration of test compound, read-out: IC50, concentration of test compound at which the [3H]-GP was inhibited by 50%
[20] = KB cells, read-out: IC50, concentration of test compound at which the [3H]-Leu was inhibited by 50%

T1 sequence (Q01650 whole entry, one chain of several): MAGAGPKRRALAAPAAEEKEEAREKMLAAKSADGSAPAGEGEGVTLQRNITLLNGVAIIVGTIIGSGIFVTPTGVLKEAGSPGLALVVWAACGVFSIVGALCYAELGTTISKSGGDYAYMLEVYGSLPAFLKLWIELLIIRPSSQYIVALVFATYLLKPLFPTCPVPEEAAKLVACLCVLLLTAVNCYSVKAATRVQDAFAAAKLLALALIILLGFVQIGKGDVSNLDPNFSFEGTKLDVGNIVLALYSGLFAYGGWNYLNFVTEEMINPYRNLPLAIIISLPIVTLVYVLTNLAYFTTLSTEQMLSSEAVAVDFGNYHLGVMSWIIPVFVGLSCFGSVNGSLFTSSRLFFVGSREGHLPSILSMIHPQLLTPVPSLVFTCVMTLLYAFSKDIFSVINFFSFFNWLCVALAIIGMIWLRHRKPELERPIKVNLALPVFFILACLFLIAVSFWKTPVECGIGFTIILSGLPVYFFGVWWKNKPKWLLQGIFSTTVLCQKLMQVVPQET

SMILES: Cc1ccc(N(CCCl)CCCl)cc1CC(N)CC(=O)O (racemic) [Compound 3, 3-Amino-4-[5-[bis(2-chloroethyl)amino]-2-methyl-phenyl]butanoic Acid]
- CC50 [1]: < 1 µM

SMILES: Cc1ccc(C(=O)N[C@@H](CC(C)C)C(=O)C2(C)CO2)cc1C[C@H](N)CC(=O)O (stereo in doubt) [Compound 63, (3S)-3-amino-4-[2-methyl-5-[[(1S)-3-methyl-1-[(2R)-2-methyloxirane-2-carbonyl]butyl]carbamoyl]phenyl]butanoic acid]
- IC50 [2, 19]: < 100 µM
- IC50 [3, 20]: < 100 µM

SMILES: Cc1ccc(N(CCBr)CCOS(C)(=O)=O)cc1C[C@H](N)CC(=O)O [Compound 20, (3S)-3-Amino-4-[5-(2-bromoethyl(2-methylsulfonyloxyethyl)amino)-2-methyl-phenyl]butanoic Acid]
- IC50 [3]: < 100 µM

SMILES: Cc1ccc(N(CCCl)CCCl)cc1NC(=O)[C@H](N)CC(=O)O [Compound 22, (3R)-3-Amino-4-[[5-[bis(2-chloroethyl)amino]-2-methyl-phenyl]amino]-4-oxo-butanoic Acid]
- IC50 [3]: < 100 µM
- CC50 [1]: < 1 µM

SMILES: Cc1cc(N(CCCl)CCCl)ccc1OC[C@H](N)CC(=O)O [Compound 27, (3R)-3-Amino-4-[4-[bis(2-chloroethyl)amino]-2-methyl-phenoxy]butanoic Acid]
- CC50 [1]: < 1 µM

SMILES: Cc1ccc(OC(=O)N(CCCl)CCCl)cc1C[C@H](N)CC(=O)O [Compound 29, (3S)-3-Amino-4-[5-[bis(2-chloroethyl)carbamoyloxy]-2-methyl-phenyl]butanoic Acid]
- IC50 [2]: < 100 µM

SMILES: Cc1ccc(COC(=O)N(CCCl)CCCl)cc1C[C@H](N)CC(=O)O [Compound 30, (3S)-3-Amino-4-[5-[bis(2-chloroethyl)carbamoyloxymethyl]-2-methyl-phenyl]butanoic Acid]
- IC50 [2]: < 100 µM

SMILES: Cc1ccc(CON(CCCl)CCCl)cc1C[C@H](N)CC(=O)O [Compound 32, (3S)-3-Amino-4-[5-[bis(2-chloroethyl)aminooxymethyl]-2-methyl-phenyl]butanoic Acid]
- IC50 [2]: < 100 µM
- IC50 [3]: < 100 µM

SMILES: CCc1ccc(N(CCCl)CCCl)cc1C[C@H](N)CC(=O)O [Compound 40, (3S)-3-amino-4-[5-[bis(2-chloroethyl)amino]-2-ethyl-phenyl]butanoic acid]
- IC50 [2]: < 100 µM
- IC50 [3]: < 100 µM
- IC50 [4]: < 100 µM
- IC50 [5]: < 100 µM
- IC50 [6]: < 100 µM
- IC50 [7]: < 100 µM
- IC50 [8]: < 100 µM
- IC50 [9]: < 100 µM
- IC50 [10]: < 100 µM
- IC50 [11]: < 100 µM
- IC50 [12]: < 100 µM
- IC50 [13]: < 100 µM
- IC50 [14]: < 100 µM
- IC50 [15]: < 100 µM
- glioblastoma tumor growth (bioluminescence imaging) [16]: suppressed glioblastoma tumor growth
- CC50 [1]: < 1 µM
- body weight [17]: maintained weight
- myelosuppression [17]: not dectected
- tumor growth suppression [17]: dose-dependent tumor growth suppression

SMILES: CCOc1ccc(N(CCCl)CCCl)cc1C[C@H](N)CC(=O)O [Compound 42, (3S)-3-amino-4-[5-[bis(2-chloroethyl)amino]-2-ethoxy-phenyl]butanoic acid]
- IC50 [2]: < 100 µM
- IC50 [3]: < 100 µM
- CC50 [1]: < 1 µM

SMILES: CC(C)Oc1ccc(N(CCCl)CCCl)cc1C[C@H](N)CC(=O)O [Compound 43, (3S)-3-amino-4-[5-[bis(2-chloroethyl)amino]-2-isopropoxy-phenyl]butanoic acid]
- IC50 [2]: < 100 µM
- IC50 [3]: < 100 µM
- CC50 [1]: < 1 µM

SMILES: N[C@H](CC(=O)O)Cc1cc(CON(CCCl)CCCl)ccc1[N+](=O)[O-] [Compound 45, (3S)-3-amino-4-[5-[bis(2-chloroethyl)aminooxymethyl]-2-nitro-phenyl]butanoic acid]
- IC50 [2]: < 100 µM
- IC50 [3]: < 100 µM

SMILES: Cc1ccc(N(CCCl)CCCl)c(C[C@H](N)CC(=O)O)c1 [Compound 50, (3S)-3-amino-4-[2-[bis(2-chloroethyl)amino]-5-methyl-phenyl]butanoic acid]
- IC50 [3]: < 100 µM
- IC50 [4]: < 100 µM
- IC50 [5]: < 100 µM
- IC50 [6]: < 100 µM
- IC50 [7]: < 100 µM
- IC50 [8]: < 100 µM
- IC50 [18]: < 100 µM
- IC50 [9]: < 100 µM
- IC50 [10]: < 100 µM
- IC50 [11]: < 100 µM
- IC50 [12]: < 100 µM
- IC50 [13]: < 100 µM
- IC50 [14]: < 100 µM
- IC50 [15]: < 100 µM
- glioblastoma tumor growth (bioluminescence imaging) [16]: suppressed glioblastoma tumor growth

SMILES: N[C@H](CC(=O)O)Cc1cc(CO)ccc1N(CCCl)CCCl [Compound 52, (3S)-3-amino-4-[2-[bis(2-chloroethyl)amino]-5-(hydroxymethyl)phenyl]butanoic acid]
- IC50 [3]: < 100 µM
- CC50 [1]: < 1 µM

SMILES: N[C@H](CC(=O)O)Cc1cc(N(CCCl)CCCl)ccc1N(CCCl)CCCl [Compound 53, (3S)-3-amino-4-[2,5-bis[bis(2-chloroethyl)amino]phenyl]butanoic acid]
- IC50 [3]: < 100 µM
- CC50 [1]: < 1 µM

SMILES: Cc1ccc(NCCCl)cc1C[C@H](N)CC(=O)O [Compound 54, (3S)-3-amino-4-[5-(2-chloroethylamino]-2-methyl-phenyl]butanoic acid]
- IC50 [3]: < 100 µM

SMILES: Cc1ccc(CBr)cc1C[C@H](N)CC(=O)O [Compound 57, (3S)-3-amino-4-[5-(bromomethyl)-2-methyl-phenyl]butanoic acid]
- IC50 [2, 19]: < 100 µM
- IC50 [3, 20]: < 100 µM

SMILES: Cc1ccc(N(CCO)CCCl)cc1C[C@H](N)CC(=O)O [Compound 58, (3S)-3-amino-4-[5-(2-chloroethyl(2-hydroxyethyl)amino)-2-methyl-phenyl]butanoic acid]
- IC50 [2]: < 100 µM

SMILES: COc1ccc(N(CCO)CCCl)cc1C[C@H](N)CC(=O)O [Compound 60, (3S)-3-amino-4-[5-(2-chloroethyl (2-hydroxyethyl)amino)-2-methoxy-phenyl]butanoic acid]
- IC50 [2]: < 100 µM
- IC50 [3]: < 100 µM

SMILES: N[C@@H](COc1cccc(N(CCCl)CCCl)c1)CC(=O)O [Compound 68, (3R)-3-amino-4-[3-[bis(2-chloroethyl)amino]phenoxy]butanoic acid]
- IC50 [2]: < 100 µM

SMILES: N[C@@H](COc1ccc(N(CCCl)CCCl)cc1)CC(=O)O [Compound 69, (3R)-3-amino-4-[4-[bis(2-chloroethyl)amino]phenoxy]butanoic acid]
- IC50 [2]: < 100 µM
